Consider one molecule from paper PMC10489644, “In Vitro Evaluation of the Potential for Drug Interactions by Salidroside” (Nutrients, 2023).

On the set-up of data set [1]: method as in PMID 29796228. Conditions: rat, cited from earlier work.
In data set [2] the test system is rat CYP enzymes (probe drug cocktail). On the set-up: method as in PMID 29796228. Conditions: salidroside 30 mg/kg/day, eight daily doses, day 8; cited from earlier work.
In data set [3] the target is T1, CYP2B6 (Homo sapiens, UniProt P20813).
T1 sequence (P20813 1-491): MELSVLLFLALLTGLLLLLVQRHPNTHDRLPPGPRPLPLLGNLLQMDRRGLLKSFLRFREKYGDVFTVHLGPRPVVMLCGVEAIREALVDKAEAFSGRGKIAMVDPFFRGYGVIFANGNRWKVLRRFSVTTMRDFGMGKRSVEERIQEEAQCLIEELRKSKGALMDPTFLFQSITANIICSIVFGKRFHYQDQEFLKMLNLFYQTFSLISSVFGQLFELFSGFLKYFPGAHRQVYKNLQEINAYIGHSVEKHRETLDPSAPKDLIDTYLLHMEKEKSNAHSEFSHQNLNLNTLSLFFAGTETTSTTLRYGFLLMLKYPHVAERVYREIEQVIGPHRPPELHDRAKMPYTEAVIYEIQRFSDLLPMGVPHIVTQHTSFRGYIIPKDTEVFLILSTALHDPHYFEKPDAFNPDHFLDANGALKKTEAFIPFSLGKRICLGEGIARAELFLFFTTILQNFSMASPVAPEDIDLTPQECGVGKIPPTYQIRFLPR
Kind of data set: biochemical.
Description: Test compound/controls working solution or DMSO were added in 238.5 µL of liver microsomes working solution, mixed well by pipetting several times and pre-incubated in a 37 °C shaking water bath for 5 min. Following the pre-incubation, 60 µL of NADPH working solution were added, mixed well by pipetting several times, and incubated in a 37 °C shaking water bath for 10 min. Following the incubation, 300 µL of quenching solution were immediately added and vortexed for ~20 s to mix. All samples were centrifuged at 4000 rpm for 15 min at 4 °C and then the supernatant was transferred for LC-MS/MS analysis. IC50 values were determined by the Hill slope equation using Graph Pad Prism.
(§1) For competitive and time-dependent CYP inhibition, the peak area ratios (PAR) of analyte/internal standard were used to semi-quantitatively determine the concentration of acetaminophen (CYP1A2 activity), 4’-hydroxydiclofenac (CYP2C9), 4’-hydroxymephenytoin (CYP2C19), dextrorphan (CYP2D6), 1’-hydroxymidazolam (CYP3A4), 6β-hydroxytestosterone (CYP3A4), hydroxybupropion (CYP2B6), and N-desethylamodiaquine (CYP2C8), with terfenadine as the internal standard by LC-MS/MS method. The HPLC-MS system utilized an Acquity UPLC system and Sciex API 4000 mass spectrometer in ESI positive mode, with quantitation employing MRM. Samples were injected onto an Atlantis T3 5 μM column (2.1 x 50 mm). […]

In data set [4] the test system is CYP2B6. Kind of data set: in vitro. Conditions: human; for Mean Fold Induction: 48 h. On the procedure: The sandwich medium was removed, and the hepatocytes were treated with incubation solutions containing salidroside (1, 5, 10, and 30 µM), vehicle (0.1% DMSO), or positive inducers in triplicate for 24 h after the cultures were established. The incubation solution was aspirated and replaced with incubation solution containing the same concentrations of salidroside, vehicle, or positive inducers for an additional 24 h. The total treatment period was 48 h. After the treatment period of 48 h, the incubation solution was aspirated. Hepatocytes were washed twice with pre-warmed HBSS containing 10 mM HEPES (HBSS I) and then the remaining solution was aspirated. Hepatocytes were washed once with pre-warmed HBSS I and incubated with 140 μL of RLT (lysis buffer from RNeasy 96 Kit) supplemented with 1% β-mercaptoethanol. Plates were then stored at −70 °C in a freezer until RNA analysis. Before RNA extraction, the frozen plate was thawed, and cell lysates were transferred to 96-well plates. RNA isolation was performed using a QIAcube RNA extraction system. Reverse transcription was performed to obtain cDNA. Quantification of the selective genes by real-time quantitative polymerase chain reaction (qPCR) was performed with TaqMan universal PCR Master Mix on the Bio-rad CFX384 TouchTM Real-Time PCR System. The relative change in the mRNA level of the selected target genes induced by each test compound was expressed in relation to the vehicle control sample, and fold changes in gene expression were determined by the ΔΔCt method.

In another data set the target is T2, CYP1A2 (Homo sapiens, UniProt P05177).
T2 construct: Mixed human liver microsomes were purchased from BioreclamationIVT; tissue BioreclamationIVT; host or cells: mixed-donor pool of human liver microsomes (Lot ZZQ)
T2 sequence (P05177 1-516): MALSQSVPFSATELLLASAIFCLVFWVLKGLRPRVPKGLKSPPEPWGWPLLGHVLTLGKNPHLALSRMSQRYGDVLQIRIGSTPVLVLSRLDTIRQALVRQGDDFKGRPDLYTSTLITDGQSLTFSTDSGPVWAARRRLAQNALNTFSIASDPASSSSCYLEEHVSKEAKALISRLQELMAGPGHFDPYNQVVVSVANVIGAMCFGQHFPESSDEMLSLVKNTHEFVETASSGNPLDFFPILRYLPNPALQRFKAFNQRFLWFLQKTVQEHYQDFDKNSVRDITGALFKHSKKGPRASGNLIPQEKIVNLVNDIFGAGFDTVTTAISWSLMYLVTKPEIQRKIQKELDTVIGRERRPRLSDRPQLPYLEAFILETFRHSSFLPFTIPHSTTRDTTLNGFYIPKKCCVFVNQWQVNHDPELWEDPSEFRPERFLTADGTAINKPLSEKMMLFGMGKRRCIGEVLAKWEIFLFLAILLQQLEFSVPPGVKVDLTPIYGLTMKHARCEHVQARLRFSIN
Description: Time-dependent inhibition (IC50 shift) in human liver microsomes. Type of data set: in vitro ADME.

Details of data set [5]: method as in PMID 22139684, PMID 22525439. Conditions: rats, two studies; cited from earlier work.
A further data set deals with CYP3A4/5. Description: in vitro. Conditions: human, microsomes.
The target of a further data set is T3, CYP2C8 (Homo sapiens, UniProt P10632).
T3 sequence (P10632 1-490): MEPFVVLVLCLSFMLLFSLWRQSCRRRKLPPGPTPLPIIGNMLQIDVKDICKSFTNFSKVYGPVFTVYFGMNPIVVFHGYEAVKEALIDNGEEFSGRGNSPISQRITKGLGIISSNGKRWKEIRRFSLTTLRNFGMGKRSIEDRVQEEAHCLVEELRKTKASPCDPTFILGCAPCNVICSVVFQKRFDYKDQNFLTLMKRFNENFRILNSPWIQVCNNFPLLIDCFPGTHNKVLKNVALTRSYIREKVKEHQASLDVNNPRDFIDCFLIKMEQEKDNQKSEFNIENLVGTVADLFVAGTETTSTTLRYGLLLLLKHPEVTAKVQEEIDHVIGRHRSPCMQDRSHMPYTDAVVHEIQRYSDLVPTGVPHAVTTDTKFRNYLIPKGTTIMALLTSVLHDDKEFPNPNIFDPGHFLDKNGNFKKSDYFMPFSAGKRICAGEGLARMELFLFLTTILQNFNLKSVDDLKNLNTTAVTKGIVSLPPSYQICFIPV
Description: biochemical.

Values joined by “and” are separate entries in the source; they are usually repeats but may differ in a detail not shown here. Equal values may be shown once. Read-outs that look alike come from different tables or passages of the source. A value given as a limit tells only on which side of the number the result lay.

Description for CYP1A2: Incubation without 30 min pre-incubation, 178.5 µL of liver microsomes working was pre-incubated in a 37 °C water bath for 30 min. After the pre-incubation, 1.5 μL of test compound or control compound working solution, 60 μL of substrate working solution, and 60 μL of NADPH working solution were added; then, the reaction mixture was mixed by pipetting up and down and then incubated at 37 °C for 10 min. Incubation with 30 min pre-incubation. Next, 1.5 μL of test compound or control compound working solutions and 60 μL of NADPH working solution were added into 178.5 μL of liver microsome working solution, then the reaction mixture was mixed by pipetting up and down and then pre-incubated at 37 °C for 30 min. After the pre-incubation, 60 μL of substrate working solution was added, then the reaction mixture was mixed by pipetting up and down and then incubated at 37 °C for 10 min. Following the incubation, 300 μL of quenching solution was added into the corresponding wells to terminate the reaction. All the above samples were vortexed for 1 min and centrifuged at 4000 rpm, 4 °C for 15 min. After centrifugation, the supernatant was removed for further LC-MS/MS analysis.
as §1
Description for CYP2C8: (§2) Incubation without 30 min pre-incubation, 178.5 µL of liver microsomes working was pre-incubated in a 37 °C water bath for 30 min. After the pre-incubation, 1.5 μL of test compound or control compound working solution, 60 μL of substrate working solution, and 60 μL of NADPH working solution were added; then, the reaction mixture was mixed by pipetting up and down and then incubated at 37 °C for 10 min. Incubation with 30 min pre-incubation. Next, 1.5 μL of test compound or control compound working solutions and 60 μL of NADPH working solution were added into 178.5 μL of liver microsome working solution, then the reaction mixture was mixed by pipetting up and down and then pre-incubated at 37 °C for 30 min. […]
(§3) For competitive and time-dependent CYP inhibition, the peak area ratios (PAR) of analyte/internal standard were used to semi-quantitatively determine the concentration of acetaminophen (CYP1A2 activity), 4’-hydroxydiclofenac (CYP2C9), 4’-hydroxymephenytoin (CYP2C19), dextrorphan (CYP2D6), 1’-hydroxymidazolam (CYP3A4), 6β-hydroxytestosterone (CYP3A4), hydroxybupropion (CYP2B6), and N-desethylamodiaquine (CYP2C8), with terfenadine as the internal standard by LC-MS/MS method. The HPLC-MS system utilized an Acquity UPLC system and Sciex API 4000 mass spectrometer in ESI positive mode, with quantitation employing MRM. […]
Description for CYP3A4/5: as §2, §3

With `OC[C@H]1O[C@@H](OCCc2ccc(O)cc2)[C@H](O)[C@@H](O)[C@@H]1O` [Salidroside], the clearance in data set [1] (12 mg/kg IV) is 21 mL/min/kg. Besides, the “oral bioavailability (fb)” value in data set [1] (12 mg/kg oral) is given as 32.1%. The observed Cmax in data set [1] (oral 12 mg/kg) is 4300 ng/mL. Further, the Cmax in data set [1] (oral 12 mg/kg, read-out: observed Cmax) is 14.3 µM. For the same molecule, in data set [2], the “decrease of losartan AUC0-∞” value is “≈ 2 fold”. Besides, the “decrease of midazolam AUC0-∞” value in data set [2] is “≈ 2 fold”. Further, the IC50 at CYP2B6 [3] was more than 50 µM; on CYP1A2 (probe phenacetin, positive control not given, likely furafylline), more than 50 µM; at CYP1A2 (read-out: IC50 after 30 min Preincubation with NADPH, probe phenacetin, positive control not given, likely furafylline), more than 50 µM; at CYP2C8, more than 50 µM. Moreover, the figures for the “Mean Fold Induction” value in the data set with CYP2B6 [4] (1 µM) and with CYP2B6 [4] (10 µM) were 0.6 fold and 1.1 fold, respectively. The fold induction at 48 h, 1 µM in the data set on CYP2B6 [4] (Mean Fold Induction) came out at 0.9. Further, the fold induction at 48 h, 3 µM with CYP2B6 [4] (Mean Fold Induction) turned out to be 1.2. Further, in the data set with CYP2B6 [4] (Mean Fold Induction), the fold induction at 48 h, 10 µM was found to be 0.8. In addition, the “IC50 Shift” value on CYP1A2 (IC50 without/with preincubation, >[…] positive for TDI) is given as “no shift”. For the same molecule, the “percentage recovery of an IV dose as unchanged in the urine” value in data set [5] was 53.7% and 64%. In the data set with CYP3A4/5, the IC50 at 10 min was more than 50 µM.
